In ChEMBL document CHEMBL1201862, “PubChem BioAssay data set” (2004):
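All cell lines were grown in 96-well plates and treated with compound for 48 hours. GI50 = concentration required for 50% inhibition of growth.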 Calls of active or inactive are those of the source. Cut-off read from the data, not from the text of the source: active = GI50 up to about 1.1 µM and inactive = higher.

What was measured:
Experiment in all cases: NCI-60 cell line screen, 48 h
NCI/ADR-RES = system: NCI/ADR-RES
SNB-78 = system: SNB-78
HOP-18 = system: HOP-18
DMS-273 = system: DMS-273
KM-20L2 = system: KM-20L2
MCF7 = system: MCF7
DMS-114 = system: DMS-114
M19-MEL = system: M19-MEL
SK-MEL-2 = system: SK-MEL-2
A549 = system: A549
K562 = system: K562
EKVX = system: EKVX
A498 = system: A498
TK-10 = system: TK-10
M14 = system: M14
ACHN = system: ACHN
SR = system: SR
XF498 = system: XF498
LXFL 529 = system: LXFL 529
786-0 = system: 786-0

SMILES	GI50 (NCI/ADR-RES)	GI50 (SNB-78)	GI50 (HOP-18)	GI50 (DMS-273)	GI50 (KM-20L2)	GI50 (MCF7)	GI50 (DMS-114)	GI50 (M19-MEL)	GI50 (SK-MEL-2)	GI50 (A549)	GI50 (K562)	GI50 (EKVX)	GI50 (A498)	GI50 (TK-10)	GI50 (M14)	GI50 (ACHN)	GI50 (SR)	GI50 (XF498)	GI50 (LXFL 529)	GI50 (786-0)
Cc1c2ccnc(-c3ccccc3)c2cc2c1[nH]c1ccccc12	0.492 µM (active)	4.32 µM (inactive)	2.15 µM (inactive)	0.425 µM (active)	2.61 µM (inactive)	2.13 µM (inactive)	1.69 µM (inactive)	0.959 µM (active)	2.62 µM (inactive)	1.29 µM (inactive)	1.58 µM (inactive)	2.92 µM (inactive)	0.219 µM (active)	–	–	–	–	–	–	–
COc1cc(N/N=C/C#N)cc(OC)c1OC	> 10 µM (inactive)	–	–	–	–	5.87 µM (inactive)	–	–	> 10 µM (inactive)	> 10 µM (inactive)	2.44 µM (inactive)	> 10 µM (inactive)	> 10 µM (inactive)	> 10 µM (inactive)	> 10 µM (inactive)	4.86 µM (inactive)	2.96 µM (inactive)	–	–	–
Nc1nc(Cl)cc(NCCCCCCCCCCCCNc2cc(Cl)nc(N)n2)n1	–	–	> 100 µM (inactive)	7.57 µM (inactive)	49.1 µM (inactive)	–	–	11.8 µM (inactive)	34.4 µM (inactive)	7.45 µM (inactive)	0.0655 µM (active)	12.3 µM (inactive)	12.9 µM (inactive)	23.6 µM (inactive)	38 µM (inactive)	–	1.99 µM (inactive)	0.386 µM (active)	0.769 µM (active)	–
COc1ccc(/C=N/NC(=O)NCCCN(C)C)cc1	–	> 100 µM (inactive)	> 100 µM (inactive)	> 100 µM (inactive)	–	–	> 100 µM (inactive)	–	> 100 µM (inactive)	> 100 µM (inactive)	> 100 µM (inactive)	–	> 100 µM (inactive)	> 100 µM (inactive)	–	> 100 µM (inactive)	–	> 100 µM (inactive)	–	–
COC1=CC(=O)c2ccccc2C1(C)C1=NC(C)(C)CO1 (configuration not stated)	–	–	> 100 µM (inactive)	> 100 µM (inactive)	> 100 µM (inactive)	–	> 100 µM (inactive)	> 100 µM (inactive)	> 100 µM (inactive)	> 100 µM (inactive)	> 100 µM (inactive)	> 100 µM (inactive)	–	> 100 µM (inactive)	> 100 µM (inactive)	> 100 µM (inactive)	> 100 µM (inactive)	> 100 µM (inactive)	> 100 µM (inactive)	> 100 µM (inactive)
O=C(CCC(=O)Nc1ccccc1C(F)(F)F)N/N=C1\C(=N\NC(=O)CCC(=O)Nc2ccccc2C(F)(F)F)C(c2ccc3c(c2)OCO3)Oc2ccccc21 (configuration not stated)	–	25.8 µM (inactive)	> 100 µM (inactive)	5.58 µM (inactive)	97.1 µM (inactive)	–	2.74 µM (inactive)	18.4 µM (inactive)	> 31.9 µM (inactive)	7.16 µM (inactive)	3.54 µM (inactive)	9.79 µM (inactive)	51.3 µM (inactive)	> 64.7 µM (inactive)	> 100 µM (inactive)	6.46 µM (inactive)	3.59 µM (inactive)	34.2 µM (inactive)	–	8.63 µM (inactive)
COc1cc(Nc2nc3ccc(C(F)(F)F)cc3nc2C(=O)O)cc(OC)c1OC	21.3 µM (inactive)	–	–	–	–	26.2 µM (inactive)	–	–	21.8 µM (inactive)	33.3 µM (inactive)	17.9 µM (inactive)	34.9 µM (inactive)	–	22.8 µM (inactive)	30 µM (inactive)	27.4 µM (inactive)	34.7 µM (inactive)	–	–	27.8 µM (inactive)
[N-]=[N+]=CC(=O)c1ccccc1C#CCCc1ccccc1	–	–	40.3 µM (inactive)	23.2 µM (inactive)	23.6 µM (inactive)	–	5.83 µM (inactive)	–	27.2 µM (inactive)	27.2 µM (inactive)	27.5 µM (inactive)	24.5 µM (inactive)	28.4 µM (inactive)	72.8 µM (inactive)	38.8 µM (inactive)	22.6 µM (inactive)	28.2 µM (inactive)	12.1 µM (inactive)	–	–
C/C(=N\NC(=S)N1CCN(c2ccccn2)CC1)c1cccc(C)n1	< 0.01 µM (active)	–	–	–	–	< 0.01 µM (active)	–	–	2.15 µM (inactive)	3.48 µM (inactive)	0.585 µM (active)	–	2.75 µM (inactive)	7.78 µM (inactive)	0.261 µM (active)	3 µM (inactive)	1.44 µM (inactive)	–	–	1.9 µM (inactive)
CCOC(=O)[C@H]1Nc2c(cccc2[N+](=O)[O-])C2c3ccccc3CC21 (some centres not stated)	–	> 100 µM (inactive)	–	> 100 µM (inactive)	> 100 µM (inactive)	–	> 100 µM (inactive)	> 100 µM (inactive)	> 100 µM (inactive)	> 100 µM (inactive)	> 100 µM (inactive)	–	–	> 100 µM (inactive)	> 100 µM (inactive)	28.4 µM (inactive)	59.8 µM (inactive)	> 100 µM (inactive)	> 100 µM (inactive)	–
